Laboratory results from US11111234B2, “Salt of a quinazoline derivative-like tyrosine kinase inhibitor and crystal form thereof” (Xuanzhu Pharma Co., Ltd., priority 2016, dated 2021).
Counter-ions that a name gives are not always drawn.

Legend:
Type in all cases: physicochemical
[1] = Study on stability (high temperature, high moisture, light; purity by HPLC and XRD); conditions: for XRD: compared with the XRD pattern at Day 0
Protocol: The Crystal form A of the maleate of the compound of Formula (1) and the hydrochloride of the compound of Formula (1) were kept at 70° C. for 3 d, and the samples were taken at Day 1 and Day 3, respectively, and were tested for purity and XRD, which were compared with those of the sample at Day 0.
The Crystal form A of the maleate of the compound of Formula (1) was kept under conditions of high moisture (25° C., RH92.5%) for 5 d, or under condition of light (4500LX±500LX) for 10 d, and was tested for purity and XRD, which were compared with those of the sample at Day 0.
Purity measurement: measurement was performed in accordance with High Performance Liquid Chromatography in Appendix II V D in Pharmacopoeia of the People's Republic of China (2010) Volume II.
XRD test: the same as described in Example 1.

[2] = Study on solubility (HPLC)
Protocol: measurement was performed in accordance with High Performance Liquid Chromatography in Appendix II V D in Pharmacopoeia of the People's Republic of China (2010) Volume II.

[3] = Study on hygroscopicity (pharmaceutical hygroscopicity test, General Rule 9103 ChP 2015)
Protocol: measurement was performed in accordance with the Guidelines for pharmaceutical hygroscopicity test in General Rule 9103 of Pharmacopoeia of the People's Republic of China (2015) Volume IV.

Row | SMILES | purity (%) ([1]; 70° C., standing time 0 d) | purity (%) ([1]; 70° C., standing time 1 d) | purity (%) ([1]; 70° C., standing time 3 d) | solubility ([2]; H2O) | solubility ([2]; pH of solution 1.0) | solubility ([2]; pH of solution 4.5) | solubility ([2]; pH of solution 6.5) | solubility ([2]; pH of solution 7.4) | Hygroscopic weight gain(%) [3] | other results
1 | COc1cc2ncnc(Nc3ccc(F)c(Cl)c3)c2cc1NC(=O)/C=C/CN1CC2(CCC2)C1 [Crystal form A of the maleate of the compound of Formula (1)] [(E)-N-(4-((3-chloro-4-fluorophenyl)amino)-7-methoxylquinazolin-6-yl)-4-(2-azaspiro[3.3]heptan-2-yl)-2-butenamide] | 98.4% | 98.0% | 97.4% | 4411.5 µg/mL | 20277.8 µg/mL | 9748.4 µg/mL | 89.1 µg/mL | 68.9 µg/mL | 0.07% | purity (%) ([1]; 25° C., RH92.5%, standing time 0 d): 98.6%; purity (%) ([1]; 25° C., RH92.5%, standing time 5 d): 98.4%; XRD ([1]; 70° C., 1 d): the same as; XRD ([1]; 70° C., 3 d): the same as; XRD ([1]; light 4500LX ± 500LX, 10 d): the same as; purity (%) ([1]; light 4500LX ± 500LX, standing time 0 d): 98.6%; purity (%) ([1]; light 4500LX ± 500LX, standing time 10 d): 98.4%; change in purity ([1]; light (4500LX±500LX) 10 d, high moisture (25° C., RH92.5%) 5 d, or high temperature (70° C.) 3 d): No apparent change in purity; solubility compared with the hydrochloride ([2]; under various pH conditions): higher solubility; Hygroscopicity result [3]: No or almost no; hygroscopicity compared with the hydrochloride [3]: lower hygroscopicity
2 | COc1cc2ncnc(Nc3ccc(F)c(Cl)c3)c2cc1NC(=O)/C=C/CN1CC2(CCC2)C1 [Hydrochloride of the compound of Formula (1)] [(E)-N-(4-((3-chloro-4-fluorophenyl)amino)-7-methoxylquinazolin-6-yl)-4-(2-azaspiro[3.3]heptan-2-yl)-2-butenamide] | 98.4% | 92.5% | 89.0% | 2200.6 µg/mL | 3255.8 µg/mL | 1883.0 µg/mL | 17.6 µg/mL | 11.2 µg/mL | 7.8% | decrease in purity ([1]; high temperature (70° C.) for 3 d): 9.4%
